# According to patent publication US20090264384A1, “INDOLE, BENZIMIDAZOLE, AND BENZOLACTAM BORONIC ACID COMPOUNDS, ANALOGS THEREOF AND METHODS OF USE THEREOF” (Nuada, Inc., priority 2004, published 2009):
# Tests used:
# [1] = system: colitis provoked by trinitrobenzene sulphonic acid (TNBS); assay: Rat model of colitis provoked by TNBS, 3 days, treatment from Day −1 (CCI-7308); format: in vivo; conditions: for attenuation of TNBS-induced fall in body weight (% change in body weight at Day 0) / reduction in area of macroscopic colonic injury / reduction in colonic MPO activity / reduction in colon weight / reduction in colonic TNF-α levels: vs CMC group; for reduction in area of macroscopic colonic injury: 72 h after TNBS
# Description: In the study, colonic macroscopic injury has been assessed, as has colonic weight as a reflection of colonic oedema, along with determination of MPO activity (Bradley et al, 1982) as an index of white cell infiltration for the evaluation of tissue injury. The methods and protocol used were substantially similar to those in Example 39, with some differences described below. TNBS Challenge—Male Wistar rats (270-330 g) were randomised into groups of 10-11 before commencement of the study. The following primary parameters were measured in the study: In addition, the weight of the colonic segment was assessed as an indirect and non-specific marker of oedema. The body weight of the animals was also determined and expressed as % change from the day of challenge. Treatments. All challenged groups were dosed orally twice daily from Day −1. The groups for study were: Colon homogenates for cytokine measurements. […] Tissue homogenates were lysed for 30 min. on ice, and then centrifuged (10 min., 14, 000×g). The aliquots of the supernatant were stored at −20° C. until use (Ten Hove et al., 2001). Tumour Necrosis Factor-a Activity. The TNF-α levels were determined with quantitative TNF-α solid-phase Enzyme Linked ImmunoSorbent Assay (ELISA), which is based on the sandwich principle (HyCult biotechnology b. V;. Cat number: […] At the end of the ELISA assay, the samples were measured spectrophotometrically (Benchmark Microplate reader, Bio-Rad Lab; λ=450 nm). The samples were diluted 2 or 4 times with the sample buffer included in the kit. The TNF-α values were expressed as pg/mg protein. This commercially available kit (Hycult Biotechnology b.v. Uden, The Netherlands. Catalogue number: […]
# [2] = Various In Vitro Cell Biology Assays (Example 41, Tables 23-26); format: cell-based; conditions: PBMC, 24 h, IL-1 □ secretion (h) (PBMC), LPS 1 μg/ml, 24 h; 3×10^−6 M; read-out: % Inhibition of Control Values
# Experimental: In each experiment, the respective reference compound was tested concurrently with the test compounds in order to assess the assay suitability. It was tested at several concentrations (for IC50 value determination).
# The test compounds were assayed at 3×10^−6 M.
# Results. The results are expressed as a percent of control values and as a percent inhibition of control values obtained in the presence of the test compounds.
# The IC50 values (concentration causing a half-maximal inhibition of control values) and Hill coefficients (nH) were determined by non-linear regression analysis of the inhibition curves using Hill equation curve fitting, a summary of the data is shown in Table 26. The IC50 value for each reference compound is indicated was determined (data not shown) and was within accepted limits of the historic average ±0.5 log units.
# [3] = system: chronic colitis provoked by trinitrobenzene sulphonic acid (TNBS); assay: Rat model of chronic colitis provoked by TNBS over 14 days, treatment from Day 1; format: in vivo; conditions: for macroscopic Damage Score / reduction in colon weight / reduction in colonic MPO activity / reduction in colonic TNF-α levels / reduction in colonic lesion area (% of the total area measured): Day 14; for reduction in colon weight / reduction in colonic MPO activity / reduction in colonic TNF-α levels / reduction in colonic lesion area (% of the total area measured) / attenuation of TNBS-induced fall in body weight (% change of body weight at Day −1): vs CMC group; for attenuation of TNBS-induced fall in body weight (% change of body weight at Day −1): over 14 days
# Description: In the chronic model of colitis, assessment of the colonic inflammation is made 14 days or longer, after the intracolonic challenge with TNBS (Boughton-Smith et al, 1988a, 1988b; Wallace et al, 1989; Rachmilewitz et al, 1989; Wallace and Keenan, 1990; Ameho et al, 1987; Sans et al, 1999; Sun et al, 2001; Maric et al, 2003; Moreels et al, 2004; Gonzalez et al, 2004). This model allows treatment with experimental agents to commence following the establishment of the colonic injury, typically 24 hours after the TNBS challenge (Galvez et al, 2000, Villegas, 2003, Gonzalez et al, 2004). The model should therefore identify the ability of the experimental compounds to accelerate the diminution of the inflammatory response and to promote healing of the colonic lesions. This model thus has relevance additional to the acute model, as the clinical correlate is the therapeutic intervention in patients with existing IBD not in remission or with flare-up, to reduce the crisis. This contrasts with the acute TNBS model where the compounds are administered one or two days prior to challenge, the clinical correlate being the use of prophylactic therapy to prevent flare-up and maintain remission in IBD patients.
# In this current study, the low intracolonic challenge concentration of TNBS used in the acute studies was also used for the chronic study over a 14 day period. This concentration and timing was based on the findings from pilot studies where a range of concentrations of TNBS and treatment conditions were evaluated over a 14 day period. […].
# The methods and protocol used were substantially similar to those in Example 39-40, with some differences described below.
# TNBS Challenge. Male Wistar rats (average body weight, 210 g) were randomised into groups before commencement of the study. In all groups, including the non-challenged and non-treated absolute control group, food was withdrawn for 12 h before TNBS administration (i.e. overnight on Day −1), but the rats were allowed free access to drinking water.
# On the morning of the day of challenge (Day 0, between 9.00 and 1 1.00 a.m.), the rats were transiently anaesthetised with ether and the TNBS solution (10 mg in 0.25 ml of 50% ethanol) was instilled approximately 6-8 cm into the colon using a soft plastic catheter inserted in the rat rectum. The rats were allowed to recover with free access to food and drinking water. At the end of the experiment, on the morning of Day 14, between 9.00 and 11.00), the colon was dissected, and the distal 8 cm photographed and immediately processed or stored appropriately for subsequent analyses.
# The following primary parameters were measured in the study: macroscopic scoring of distal 8 cm of colon; myeloperoxidase levels in segments of distal 8 cm of colon; TNF-α levels in segments of distal 8 cm of colon.
# In addition, the weight of the standard colonic segment was assessed as an indirect and non-specific marker of oedema. The body weight of the animals was also determined each evening of the study, starting on Day-1, and also on the morning of Day 14. The data is shown graphically as the % change from the weight on Day-1, prior to challenge.
# Treatments. The TNBS challenged groups for study were: (a) Vehicle control 0.5% carboxy methyl cellulose (CMC) p.o., twice daily from Day; (b) CCI-7506 25 mg/kg, p.o., twice daily from Day 1 (50 mg/kg/day total); (c) CCI-7506 50 mg/kg, p.o., twice daily from Day 1 (100 mg/kg/day total); (d) CCI-7507 12.5 mg/kg, p.o., twice daily from Day 1 (25 mg/kg/day total); (e) CCI-7507 25 mg/kg, p.o., twice daily from Day 1(50 mg/kg/day total); […]; (g) Infliximab 3 mg/kg, single slow i.v. injection, on Day 1 and Day7.
# The experimental compounds that were administered orally were given twice a day from Day 1, i.e. 24 h following TNBS administration, for the remainder of the 14 day experimental period. Infliximab was administered by slow i.v. injection of Day 1 and on Day 7. […]
# [4] = 4 mg/kg/day p.o. in divided doses
# [5] = 20 mg/kg/day p.o. in divided doses
# [6] = 100 mg/kg/day p.o. in divided doses
smiles,measurement,setting,value
COc1ccc(-c2nc3ccccc3n2CCCCCB(O)O)cc1 [CCI-7308],attenuation of TNBS-induced fall in body weight (% change in body weight at Day 0),[1]; 4 mg/kg/day p.o. in divided doses b.i.d.,significantly different from the challenged CMC control group on Day 1
same,reduction in area of macroscopic colonic injury,[1]; [4],did not reach significance
same,reduction in colonic MPO activity,[1]; [4],significant (P<0.001) reduction in colonic MPO levels at all three dose levels
same,attenuation of TNBS-induced fall in body weight (% change in body weight at Day 0),[1]; 20 mg/kg/day p.o. in divided doses b.i.d.,"significantly different from the CMC group on Days 1, 2 and 3"
same,reduction in area of macroscopic colonic injury,[1]; [5],statistically significant
same,reduction in colon weight,[1]; [5],statistically significant
same,reduction in colonic MPO activity,[1]; [5],significant (P<0.001) reduction in colonic MPO levels at all three dose levels
same,reduction in colonic TNF-α levels,[1]; [5],achieving significance
same,attenuation of TNBS-induced fall in body weight (% change in body weight at Day 0),[1]; 100 mg/kg/day p.o. in divided doses b.i.d.,preventing the fall in body weight on all 3 days post-challenge
same,reduction in area of macroscopic colonic injury,[1]; [6],statistically significant
same,reduction in colon weight,[1]; [6],statistically significant
same,reduction in colonic MPO activity,[1]; [6],significant (P<0.001) reduction in colonic MPO levels at all three dose levels
same,reduction in colonic TNF-α levels,[1]; [6],achieving significance
same,relative potency versus sulfasalazine in reducing macroscopic injury,"[1]; preliminary indication, from comparison of molecular weights",~2.5 times
same,inhibition at 3 µM,[2],68%
COc1ccc(-c2nc3ccccc3n2CCCCCB(O)O)cc1 [CCI-7507],macroscopic Damage Score,[3]; 25 mg/kg/day p.o. from Day 1,reduced the damage score
same,reduction in colon weight,[3]; 25 mg/kg/day p.o. from Day 1,significantly reduced the colonic weight of the standard segment at both doses
same,reduction in colonic MPO activity,[3]; 25 mg/kg/day p.o. from Day 1,significant and dose-dependent fall in the elevated MPO activity at both dose levels
same,reduction in colonic TNF-α levels,[3]; 25 mg/kg/day p.o. from Day 1,caused a significant reduction in the elevated levels of TNF-α
same,reduction in colonic lesion area (% of the total area measured),[3]; 25 mg/kg/day p.o. from Day 1,statistically significant for both doses
same,attenuation of TNBS-induced fall in body weight (% change of body weight at Day −1),[3]; 25 mg/kg/day p.o. in divided doses from Day 1,"significantly different from that in the CMC challenged group (P<0.05) on Days 2, 3, 4, 8, 9 and 10 post-challenge"
same,macroscopic Damage Score,[3]; 50 mg/kg/day p.o. from Day 1,reduced the damage score
same,reduction in colon weight,[3]; 50 mg/kg/day p.o. from Day 1,significantly reduced the colonic weight of the standard segment at both doses
same,reduction in colonic MPO activity,[3]; 50 mg/kg/day p.o. from Day 1,significant and dose-dependent fall in the elevated MPO activity at both dose levels
same,reduction in colonic TNF-α levels,[3]; 50 mg/kg/day p.o. from Day 1,caused a significant reduction in the elevated levels of TNF-α
same,reduction in colonic lesion area (% of the total area measured),[3]; 50 mg/kg/day p.o. from Day 1,statistically significant for both doses
same,attenuation of TNBS-induced fall in body weight (% change of body weight at Day −1),[3]; 50 mg/kg/day p.o. in divided doses from Day 1,significantly different form the CMC group on all days from Day 2 to 10
